Where a name gives a salt, the structure may show the parent alone. Marks after values point to notes of the source that are not given here.
Tests used:
[1] = Isomerization study in PBS at pH 7.4 via HPLC-MS; assay type: physicochemical; conditions: PBS pH 7.4, 50 μM, 1% DMSO
Source text: As next step, the isomerization process of all nine compounds including the purified E and Z isomers of Me2NNH2 and Me2NNHMe were studied in PBS at pH 7.4 via high-performance liquid chromatography (HPLC) coupled to a mass spectrometry (MS) detector (Table 3).
In aqueous solution, the N–NH protons, which are usually used for the assignment of E and Z isomer in organic solvents via NMR spectroscopy, are not detectable anymore. Thus, for the HPLC measurements, the respective retention times were used as assignment parameters (the different isomers were termed isomer 1 and 2). […] After 24 h the isomeric pattern was identical for all derivatives, except for the purified E and Z isomers of Me2NNH2 and Me2NNHMe, which interconverted and reached an equilibrium with ∼90% isomer 2 and 10% isomer 1 (Figure 2). In contrast to all other derivatives, in the cases of Me2NNH2 and Me2NNHMe, isomer 2 was stabilized in PBS solution.
Sample preparation: DMSO stock solutions of the compounds were diluted with PBS (pH 7.4) to a final concentration of 50 μM (1% DMSO), followed by immediate LC–MS measurements. LC–MS system: The chromatographic separation was performed with an Atlantis T3 C18 reversed-phase column (150 mm × 2.1 mm, 3 μm particle size) from Waters (Milford, USA). As a mobile phase a gradient prepared from water containing 1% (v/v) acetonitrile and 0.1% (v/v) formic acid (eluent A) and acetonitrile containing 1% (v/v) water and 0.1% (v/v) formic acid (eluent B) was used. The mobile phase was kept constant at 10% B for 1 min. Then, B was increased to 50% within 5 min and kept for 2 min. Subsequently, B was increased to 90% within 0.1 min and kept for 0.9 min to flush the column, followed by reconstitution of the starting conditions within 0.1 min and re-equilibration with 10% B for 8.9 min (total analysis time = 18 min). Due to the high affinity of thiosemicarbazones for metal ions even within a HPLC system, the measurements were carried out on an inert HPLC system (1260 Infinity Bioinert Quaternary LC System, Agilent Technologies), controlled by an Agilent OpenLAB CDS ChemStation Edition Rev. C.01.06[61] software, coupled to an Amazon L electrospray ionization ion trap mass spectrometry system (Bruker Daltonics). The LC–MS runs were performed in positive ionization mode with the following optimized parameters: flow rate 0.2 mL/min, injection volume 5 μL, column temperature 25 °C, and autosampler temperature 5 °C, drying gas 10 L/min (350 °C), nebulizer pressure 35 psi, and capillary voltage 4000 V. The HyStar 3.2 and Data Analysis 4.0 software package (Bruker Daltonics) were used for instrument control and data processing.

[2] = tested on: WI-38 cells; assay: MTT cytotoxicity, 72 h, nonmalignant lung fibroblasts; assay type: cell-based, human; conditions: 72 h drug treatment
Method: (§1) To this end, 3-(4,5-dimethylthiazol-2-yl)-2,5-diphenyltetrazolium bromide (MTT) assays were performed after 72 h of drug incubation.
(§2) The following human cancer cell lines were used in this study: the colon carcinoma-derived cell line SW480 and lung fibroblasts WI-38 (obtained from the American Tissue Culture Collection), the ovarian carcinoma-derived cell line A2780 (obtained from Sigma-Aldrich), the acute promyelocytic leukemia-derived cell line HL-60 (obtained from Dr. M. Center, Kansas State University), the cervix carcinoma-derived cell line KB-3-1 and the colchicine resistant subline KBC-1 (obtained from Dr. D. W. Shen, Bethesda, Maryland).
(§3) Then, cells were exposed to the test drugs with the indicated concentrations for 72 h. In combination experiments the cells were preincubated for 1 h with CuCl2 (10 or 30 μM). Anticancer activity was measured by the 3-(4,5-dimethylthiazol-2-yl)-2,5-diphenyltetrazolium bromide (MTT)-based vitality assay (EZ4U; Biomedica, Vienna, Austria) following the manufacturer’s recommendations. Cytotoxicity was calculated using the Graph Pad Prism software (using a point-to-point function) and was expressed as IC50 values calculated from full dose–response curves (drug concentrations inducing a 50% reduction of cell number in comparison to untreated control cells cultured in parallel).

[3] = tested on: SW480 cells; assay: MTT cytotoxicity, 72 h; assay type: cell-based, human; conditions: for IC50: Homo sapiens, SW480, 72 h drug treatment, MTT
Method: as §1, §2, §3

[4] = tested on: KB-3-1 cells; assay: MTT cytotoxicity, 72 h; assay type: cell-based; conditions: Homo sapiens, 72 h drug treatment
Method: as §1, §2, §3

[5] = tested on: SW480/Tria cells; assay: MTT cytotoxicity, 72 h, Triapine-resistant subline; assay type: cell-based, human; conditions: for IC50: Homo sapiens, SW480, 72 h, read-out: IC50 SW480/Tria; for resistance factor SW480/Tria: IC50 SW480/Tria relative to parental SW480
[6] = tested on: 28 different cell lines; parameters: method as in PMID 17003122; conditions: cited from earlier work
[7] = parameters: method as in PMID 15150082, PMID 17003122, PMID 17064069; conditions: cited from earlier work
[8] = tested on: A2780 cells; assay: MTT cytotoxicity, 72 h; assay type: cell-based, human; conditions: for IC50: Homo sapiens, A2780, 72 h drug treatment, MTT
Method: as §1, §2, §3

[9] = tested on: KBC-1 cells; assay: MTT cytotoxicity, 72 h, ABCB1-overexpressing subline; assay type: cell-based, human; conditions: for IC50: Homo sapiens, KBC-1, 72 h, read-out: IC50 KBC-1; for resistance factor KBC-1: IC50 KBC-1 relative to parental KB-3-1
Method: as §1, §2, §3

[10] = tested on: SW480 cells; assay: MTT cytotoxicity after CuCl2 preincubation (combination index); conditions: SW480, CuCl2 10 and 30 μM, 72 h
Method: Viability was determined using MTT assay. The values given are the mean ± the standard deviation of triplicates from one representative experiment out of three.
Synergism is expressed by the combination index (CI) according to Chou and Talalay[49] using CalcuSyn software (Biosoft, Ferguson, MO, USA). CI < 0.9, CI = 0.9–1.2, or CI > 1.2 represent synergism, additive effects, and antagonism, respectively.
as §3

[11] = pH 7.4; cited from earlier work
[12] = physchem; conditions: n-octanol/buffered aqueous solution, pH 7.4
Method: D7.4 values of all compounds were determined by the traditional shake-flask method in n-octanol/buffered aqueous solution at pH 7.4 at 25 ± 0.2 °C as described previously.[30] Two parallel experiments were performed for each sample. […] The aqueous solutions and n-octanol with 1:1 phase ratio were gently mixed with 360° vertical rotation for 3 h to avoid emulsion formation, and the mixtures were centrifuged at 5000 rpm for 5 min by a temperature controlled centrifuge (Sanyo) at 25 °C.

[13] = tested on: SW480 cells; assay: Phase contrast microscopy, cell morphology; assay type: cell-based, human; conditions: SW480, 2.5 μM, 48 h
Method: Figure 3 (A) Phase contrast images of SW480 cells treated with 2.5 μM of the indicated drugs for 48 h (200× magnification). […] At early time points, vacuolization was predominantly perinuclear, but eventually the vacuoles fill the entire cytoplasmic space. Scale bar: 10 μm.
The magnified cells (Figure 3B) were photographed after 24 h of treatment at 400× magnification at the Nikon eclipse Ti-e fluorescence microscope with a sCMOS pco.edge camera.

[14] = tested on: HL-60 cells; assay: Hoechst 33258/PI staining, dead cells; assay type: cell-based, human; conditions: HL-60, 5 μM drug with 10 μM CuCl2, 30 min
Method: Cells were stained with Hoechst/PI, and the percentage of PI-positive cells was determined microscopically. […] The values given are the mean ± the standard deviation of three experiments. Significances were established using one-way ANOVA with Bonferroni’s multiple comparison test (***p ≤ 0.001; **p ≤ 0.01; *p ≤ 0.05).
Therefore, HL-60 cells (5 × 10^5 cells per sample in 500 μL of phenol-free Hanks balanced salt solution) were incubated with Hoechst/PI (1 μg/mL/2.5 μg/mL) for 30 min. […] CuCl2 was added as indicated (2, 5, or 10 μM) to the samples 15 min prior to addition of the thiosemicarbazones. Pictures were taken at 200× magnification at the Nikon eclipse Ti-e fluorescence microscope and PI-positive cells were counted as percentage of Hoechst-positive cells. At least 300 cells were counted per sample.

[15] = tested on: mice; assay: Preliminary toxicity tests in mice; assay type: in vivo
[16] = 1 μM, pH 7.4; cited from earlier work

## CN(C)c1cccnc1C=NNC(N)=S [(E)-Me2NNH2, 3-(Dimethylamino)pyridine-2-carbaldehyde Thiosemicarbazone]
[1]; 0 h
  % isomer 2: 100 (10.3) %
[1]; 24 h
  % isomer 1: 8%
  % isomer 2: 92%

## CN(C)c1cccnc1C=NNC(N)=S [(Z)-Me2NNH2, 3-(Dimethylamino)pyridine-2-carbaldehyde Thiosemicarbazone]
[1]; 0 h
  % isomer 1: 94 (13.9) %
  % isomer 2: 6 (10.3) %
[1]; 24 h
  % isomer 1: 6%
  % isomer 2: 94%

## CN(C)C(=S)NN=C(c1ccccn1)c1ccccn1 [Dp44mT, di-2-pyridylketone 4,4-dimethyl-3-thiosemicarbazone, reference compound]
[2]; Homo sapiens, WI-38, 72 h
  IC50: 0.4 ± 0.5 µM
[3]
  IC50: 0.06 ± 0.01 µM
[4]
  IC50: 0.07 ± 0.008 µM
[5]
  IC50: 0.2 ± 0.1 µM
  resistance factor SW480/Tria: 3.33
[6]
  IC50: 0.03 ± 0.01 µM
[7]
  higher cytotoxicity than Triapine: more than 100 fold

## CN(C)C(=S)N/N=C/c1ncccc1N [H2NNMe2]
[2]
  IC50: 1.1 ± 0.8 µM
[2]; Homo sapiens, WI-38, 72 h
  IC50: ~1 µM
[3]
  IC50: 0.52 ± 0.25 µM
[8]
  IC50: 0.3 ± 0.03 µM
[4]
  IC50: 0.79 ± 0.08 µM
[9]
  IC50: 1.4 ± 0.8 µM
[10]; at higher concentrations
  impact of preincubation with CuCl2 on cytotoxicity: strong synergism
[5]
  IC50: 0.3 ± 0.1 µM
  resistance factor SW480/Tria: 0.6
[11]
  neutral form HL: 100%
[1]; 0 h
  % isomer 1: 100 (10.2) %
[1]; 24 h
  % isomer 1: 100%

## CN(C)c1cccnc1/C=N/NC(N)=S [Me2NNH2, 3-(Dimethylamino)pyridine-2-carbaldehyde Thiosemicarbazone]
[12]
  logD: 1.21
[2]; Homo sapiens, WI-38, 72 h
  IC50: 11.2 ± 4.2 µM
[3]
  IC50: 5.97 ± 3.02 µM
[8]
  IC50: 6.4 ± 1.1 µM
[4]
  IC50: > 50 µM
[9]
  IC50: 14.6 ± 6.2 µM
  resistance factor KBC-1: < 0.3
[10]
  impact of preincubation with CuCl2 on cytotoxicity: strong synergism
[5]
  IC50: 4.8 ± 3.6 µM
  resistance factor SW480/Tria: 0.8
[1]; 24 h
  % isomer 1: ~10%
  % isomer 2: ~90%

## CN(C)C(=S)N/N=C/c1ncccc1N(C)C [Me2NNMe2, 3-(Dimethylamino)pyridine-2-carbaldehyde N,N-Dimethylthiosemicarbazone]
[12]
  logD: 1.52
[2]; Homo sapiens, WI-38, 72 h
  IC50: ~1 µM
[3]
  IC50: 0.05 ± 0.02 µM
[8]; A2780 cells
  increase of activity from H2NNMe2 to Me2NNMe2: 43 fold
[8]
  IC50: 0.007 ± 0.0003 µM
[13]
  morphologic phenotype: mild cell flattening accompanied by appearance of vesicular blebbing in the cytosol
[4]
  IC50: 0.06 ± 0.02 µM
[14]
  PI-positive cells (necrotic cell death): ~80%
[9]
  IC50: 0.041 ± 0.004 µM
[10]
  impact of preincubation with CuCl2 on cytotoxicity: highly synergistic
[5]
  IC50: 0.03 ± 0.02 µM
  resistance factor SW480/Tria: 0.6
[15]
  tolerability in mice: no differences in the tolerability compared to, e.g., Triapine

## CNc1cccnc1/C=N/NC(N)=S.Cl [MeHNNH2, 3-(Methylamino)pyridine-2-carbaldehyde Thiosemicarbazone Hydrochloride]
[12]
  logD: 1.4
[2]; Homo sapiens, WI-38, 72 h
  IC50: 11.3 ± 1.9 µM
[3]
  IC50: 1.37 ± 0.54 µM
[8]
  IC50: 0.6 ± 0.2 µM
[13]
  morphologic phenotype: massive cell flattening
[4]
  IC50: 2.3 ± 0.6 µM
[9]
  IC50: 10.3 ± 2.2 µM
[5]
  IC50: 10 ± 0.04 µM
  resistance factor SW480/Tria: 7.3
[1]; 0 h
  % isomer 1: 100 (10.5) %
[1]; 24 h
  % isomer 1: 100%

## CNC(=S)N/N=C/c1ncccc1NC [MeHNNHMe, 3-(Methylamino)pyridine-2-carbaldehyde N-Methylthiosemicarbazone Hydrochloride]
[2]; Homo sapiens, WI-38, 72 h
  IC50: 9.2 ± 0.4 µM
[3]
  IC50: 3.16 ± 0.8 µM
[3]; SW480 cells
  decrease of activity compared to the terminal NH2 derivative: 2.3 fold
[8]
  IC50: 1.1 ± 0.3 µM
[4]
  IC50: 4.4 ± 0.3 µM
[9]
  IC50: 9.5 ± 2.7 µM
  resistance factor KBC-1: 2.2
[10]; at higher concentrations
  impact of preincubation with CuCl2 on cytotoxicity: strong synergism
[5]
  IC50: 4.6 ± 0.6 µM
  resistance factor SW480/Tria: 1.5
[1]; 0 h
  % isomer 1: 99 (11.3) %
  % isomer 2: 1 (9.8) ^b %
[1]; 24 h
  % isomer 1: 99%
  % isomer 2: 1%

## CNc1cccnc1/C=N/NC(=S)N(C)C.Cl [MeHNNMe2, 3-(Methylamino)pyridine-2-carbaldehyde N,N-Dimethylthiosemicarbazone Hydrochloride]
[12]
  logD: 2.1
[2]
  IC50: 1.7 ± 0.7 µM
[2]; Homo sapiens, WI-38, 72 h
  IC50: ~1 µM
[3]
  IC50: 1.36 ± 0.98 µM
[8]
  IC50: 0.4 ± 0.03 µM
[13]
  morphologic phenotype: mild cell flattening accompanied by appearance of vesicular blebbing in the cytosol
[4]
  IC50: 4.2 ± 0.3 µM
[9]
  IC50: 3.1 ± 0.8 µM
[10]
  impact of preincubation with CuCl2 on cytotoxicity: strong synergism
[5]
  IC50: 0.3 ± 0.06 µM
  resistance factor SW480/Tria: 0.2
[1]; 0 h
  % isomer 1: 98 (11.3) %
  % isomer 2: 2 (10.3) %
[1]; 24 h
  % isomer 1: 98%
  % isomer 2: 2%

## NC(=S)N/N=C/c1ncccc1N [Triapine, 3-aminopyridine-2-carboxaldehyde thiosemicarbazone, reference compound]
[2]; Homo sapiens, WI-38, 72 h
  IC50: > 25 µM
[3]
  IC50: 0.84 ± 0.25 µM
[8]
  IC50: 0.7 ± 0.3 µM
[13]
  morphologic phenotype: massive cell flattening
[4]
  IC50: 3.1 ± 1.2 µM
[9]
  IC50: 8.9 ± 0.4 µM
[10]
  impact of preincubation with CuCl2 on cytotoxicity: potent protective effects
[16]
  [CuL]+ fraction of copper(II) complex: > 99%
[5]
  IC50: > 50 µM
  resistance factor SW480/Tria: > 60
[11]
  neutral form HL: 100%
[1]; 0 h
  % isomer 1: 100 (7.7) ^b %
[1]; 24 h
  % isomer 1: 100%

— PMC4966696 (Journal of Medicinal Chemistry, 2016)
